Test results as given in US20070258926A1, “Composition containing retinoic acid nanoparticles coated with inorganic salt of polyvalent metal” (LTT BIO-PHARMA CO., LTD., priority 2003, published 2007).

System: hyaluronic acid
Conditions: topical application, mice
Experimental: The dorsal skin of mice (ddy strain/5 week old/male) was clipped with electric clippers and a Vaseline based retinoic acid preparation (containing 0.1% retinoic acid) was applied to the clipped area 10 mg/cm^2 per day for 4 consecutive days.

CC1=C(/C=C/C(C)=C/C=C/C(C)=C/C(=O)O)C(C)(C)CCC1 [retinoic acid, all-trans retinoic acid]
colloidal iron staining of basal cells and prickle cells of the epithelium (production of hyaluronic acid): less significant
